From ChEMBL document CHEMBL1201862, “PubChem BioAssay data set” (2004)
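Dose response: 5 concentrations. Exposure: 48 h. Format: 96-well plates. Endpoint: linear interpolation; highest concentration if not reached. Abbreviation: GI50, concentration required for 50% inhibition of growth.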 Activity calls are given as the source filed them. Rule as the data show it: active = GI50 up to about 1.1 µM and inactive = higher.

Key:
Test in all cases: DTP human tumour cell line panel, 48 h
EKVX = tested on: EKVX
HL-60 = tested on: HL-60
NCI-H23 = tested on: NCI-H23
COLO 205 = tested on: COLO 205
HCC 2998 = tested on: HCC 2998
SF-539 = tested on: SF-539
U-251 = tested on: U-251
SK-MEL-2 = tested on: SK-MEL-2
MOLT-4 = tested on: MOLT-4
SF-268 = tested on: SF-268
HT-29 = tested on: HT-29
OVCAR-5 = tested on: OVCAR-5
HOP-62 = tested on: HOP-62
A549 = tested on: A549
MCF7 = tested on: MCF7
CAKI-1 = tested on: CAKI-1
IGROV-1 = tested on: IGROV-1
NCI-H460 = tested on: NCI-H460
SF-295 = tested on: SF-295
SNB-19 = tested on: SNB-19

Measured: GI50

CCn1c(SCC(=O)N/N=C/c2ccccc2)nc2ccccc2c1=O
inactive: EKVX 26.3 µM | HL-60 4.8 µM | NCI-H23 31.8 µM | COLO 205 8.34 µM | HCC 2998 5.22 µM | SF-539 10.4 µM | U-251 18.5 µM | SK-MEL-2 11.7 µM | MOLT-4 5.14 µM | SF-268 15.8 µM | HT-29 4.06 µM | OVCAR-5 > 52 µM | HOP-62 12.8 µM | A549 4.89 µM | MCF7 4.75 µM | CAKI-1 9.08 µM | IGROV-1 12.9 µM | NCI-H460 2.13 µM | SF-295 4.7 µM | SNB-19 18.5 µM
